One data set concerns mice. Put plainly: Determination of maximum tolerated dose (MTD), subcutaneous test. The class given is in vivo. The conditions noted are these: highest dose at which none of the animals experienced systemic toxicity. An excerpt: (§1) Male guinea pigs weighing 800-1000 grams (Harlan-Sprague-Dawley, San Diego, Calif.) were used for efficacy studies. Male guinea pigs (Harlan-Sprague-Dawley) weighing 400-600 grams were used for pharmacokinetic studies. The animals were housed, 1 per cage, in a temperature-controlled environment with alternating 12-hour periods of light and darkness and given unrestricted access to food and water. Prior to each study, animals were habituated to the environment for at least 7 days. Female CDI mice (Sprague-Dawley) weighing 22-28 grams were used for determination of maximum tolerated dose (MTD). All animals were maintained in accordance with guidelines of the Committee on Care and Use of Laboratory Animals of the Institute of Laboratory Animal Resources, National Research Council.
Determination of maximum tolerated dose (MTD) was done in mice using a subcutaneous test known in the art (R. H. de long et al., Anesthesiology 54:177-81, 1981). Groups of three mice each were given injections of either 780 or 980 mg per kg body weight of the above-described MVL formulation containing bupivacaine sulfate as two divided doses of 500 μl each (total 1.0 mL volume). The doses were administered in rapid sequence into each flank. Control groups of 3 mice each received one of the test doses as a single dose of 10, 20, 30 or 50 mg/kg body weight of unencapsulated bupivacaine hydrochloride. […]

A further data set is described as follows: in vivo. More on the design: species or system guinea pigs. Particulars: guinea pig; for half-life: t1/2 (hr).
Text: as §1
The in vivo pharmacokinetics of the MVL formulations of bupivacaine and free bupivacaine hydrochloride were compared following a single 1 mL intracutaneous dose of the MVL formulation containing 1.0 percent (w/v) of bupivacaine, or a dose of 0.5 percent (w/v) of unencapsulated bupivacaine hydrochloride to a group of guinea pigs. […] For the animals that received free bupivacaine hydrochloride, samples were collected at 0 and 30 minutes, and 1, 3, 6 and 9 hours following injection, while the animals that received the MVL formulations of bupivacaine were sampled 0, 6, 12, 18, 24, 48, and 72 hours following injection. At each time point, 3 or more animals were first anesthetized with halothane and then exanguinated by cardiac puncture. Serum samples were obtained by centrifugation of clotted whole blood. Skin was collected around the injection site with 3 cm margins, together with a 2-3 mm layer of underlying subcutaneous tissue. The skin and serum samples were kept frozen at −20° C. until analysis.
The amount of total bupivacaine remaining in the injection site was obtained by mincing the tissue followed by in toto homogenization in water using a Polytron homogenizer (Brinkman, Littau, Switzerland). Bupivacaine was extracted from the homogenate and analyzed by HPLC using a previously published method (Le Guevello et al., J. Chromatography 622:284-290, 1993). Bupivacaine concentration in serum was determined by extraction followed by HPLC (Le Guevello et al., supra). Tetracaine spiked into each sample before extraction was used as an internal standard. The limit of detection of the assay was 20 ng/mL.
Pharmacokinetic data obtained from the samples were analyzed using a noncompartmental model (WinNonlin software, Scientific Consulting, Inc., Apex, N.C.). Parameters calculated were the drug amount remaining at the injection site, the area under the “amount vs. time” curve (AUC), and drug half-life (t1/2,). In addition to the AUC and half-life, peak concentration (Cmax) was also reported for serum bupivacaine pharmacokinetics.
One way analysis of variance (ANOVA) was used to separately determine dose dependency for the different drug formulations and route of administration (via MVL or free drug) as well as for comparison between formulations. Student-Newman-Keuls tests were used on all ANOVA analyses.

Structures can show the parent of a compound that is named as a salt.

For orientation: AUC means concentration integrated over time. The term Cmax denotes the peak of the concentration-time curve. The half-life is the time in which the quantity being followed falls by half. A low value points to fast loss. On to `CCCCN1CCCCC1C(=O)Nc1c(C)cccc1C` (centres unmarked) [Bupivacaine hydrochloride], for which the “maximum tolerated dose (MTD)” value with mice is reported as “about 20 mg/kg of body weight”. Moreover, in the data set “in vivo”, the “AUC (mg * hr), Skin” value worked out at 2.9 mg·h and the “tolerability of the intracutaneous dose” value was “unable to tolerate”. In the data set “in vivo” (male), the exposure (AUC) was 21200 ng·h/mL; the concentration peaked (Cmax) at 6500 ng/mL; the “Peak Amount (mg), Skin” value is listed as 3.8 mg. Also, the half-life in “in vivo” (male, Serum) is 2.1 h. The compound further had a half-life in “in vivo” (male, Skin) of 1.3 h.

Values taken from patent US8834921B2, “Sustained-release liposomal anesthetic compositions” (Pacira Pharmaceuticals, Inc., priority 1997, dated 2014).
